# Test results: patent US8211695B2, “Isolated transgenic mammalian neural cell for detection of a sample containing a chemical substance damage to neurological system or selection of drugs for treating neurodegenerative disorders” (Taipei Medical University, priority 2010, dated 2012)
# Test system: AhR
# Assay: DRE driven luciferase activity of C6 DRE stable clone (pGL-2 pro/DRE) and pGL2 control cell line
# Assay type: cell-based, rat
# Conditions: C6 glioma cells, pGL-2 pro/DRE stable clone versus pGL2 control cell line; FIG. 1
# Description: The plasmid pGL-2 pro/DRE was constructed by inserting a synthesized DNA fragment containing three rat dioxin responsive element (DRE, […] CGCAACTCGCTAGCATA; SEQ ID NO:1) between the KpnI and NheI sites of pGL2-promoter (pGL2 pro). To generate pGL-2 pro/DRE stable clones, plasmids pGL-2 pro/DRE and pCMV-Tag 2B were co-transfected into C6 glioma cells by Lipofectamine™ 2000. Meanwhile, plasmid pGL-2 pro and pCMV-Tag 2B were followed the same conditions to generate pGL-2 control cell line. These transfected cells were selected by Geneticin® (G418, 500 μg/ml) for 18 days. The stable clones of C6 cells were obtained and maintained in DMEM with 10% FBS and G418. To examine the stably insertion of pGL-2 pro/DRE or pGL-2 pro, the G418 resistant cells were harvested to extracted genomic DNA for polymerase chain reaction (PCR). The inserted DNA was confirmed to amplify 392 bps for pGL-2 pro/DRE stable insertion or 324 bps for pGL-2 pro (pGL-2) stable insertion, respectively. Finally, the metabolic degradable AhR agonist, 3-methylcholanthere (3MC), was used to examine the luciferase activity of pGL-2 pro/DRE C6 stable clones.
# The metabolic degradable AhR agonist, 3-methylcholanthere (3MC), was used to examine the DRE driven luciferase activity of C6 DRE stable clone and pGL2 control cell line.
smiles,measurement,value
"Cc1ccc2cc3c(ccc4ccccc43)c3c2c1CC3 [3MC, 3-methylcholanthere]",DRE driven luciferase activity (luminescence),increase luminescence in a dose response only in DRE stable clone
